According to ChEMBL document CHEMBL1932968, “Cyclic amino acid linkers stabilizing key loops of brain derived neurotrophic factor” (Bioorg Med Chem Lett, 2012):
Activity calls are given as the source filed them. The rule behind the calls is not given here. *1 amine or outer side, *2 acyl side, *3 side chain or, on linkers, in order; H or OH if unused. Where a SMILES comes first, the peptide text is derived from it. [ ]: non-standard residue; d: D form. ACHC(1S,2S) = O=C([C@H]1CCCC[C@@H]1N[*:1])[*:2]; X2 = C[C@@]1(C(=O)[*:2])CCN1[*:1]; X1 = C[C@]1(C(=O)[*:2])CCN1[*:1]; Aze = O=C(O)[C@@H]1CCN1; βAla = NCCC(=O)O

Assays:
[1] = molecular target: BDNF/NT-3 growth factors receptor (Rattus norvegicus) (UniProt Q63604); assay: Agonist activity at TrkB in E18 Sprague-Dawley rat hippocampal neurons assessed as induction of TrkB autophosphorylation at Tyr490 at 100 uM after 1 hr by Western blotting analysis; format: functional, tissue-based; conditions: Hippocampus
Chain of BDNF/NT-3 growth factors receptor (Rattus norvegicus) (Q63604 whole entry): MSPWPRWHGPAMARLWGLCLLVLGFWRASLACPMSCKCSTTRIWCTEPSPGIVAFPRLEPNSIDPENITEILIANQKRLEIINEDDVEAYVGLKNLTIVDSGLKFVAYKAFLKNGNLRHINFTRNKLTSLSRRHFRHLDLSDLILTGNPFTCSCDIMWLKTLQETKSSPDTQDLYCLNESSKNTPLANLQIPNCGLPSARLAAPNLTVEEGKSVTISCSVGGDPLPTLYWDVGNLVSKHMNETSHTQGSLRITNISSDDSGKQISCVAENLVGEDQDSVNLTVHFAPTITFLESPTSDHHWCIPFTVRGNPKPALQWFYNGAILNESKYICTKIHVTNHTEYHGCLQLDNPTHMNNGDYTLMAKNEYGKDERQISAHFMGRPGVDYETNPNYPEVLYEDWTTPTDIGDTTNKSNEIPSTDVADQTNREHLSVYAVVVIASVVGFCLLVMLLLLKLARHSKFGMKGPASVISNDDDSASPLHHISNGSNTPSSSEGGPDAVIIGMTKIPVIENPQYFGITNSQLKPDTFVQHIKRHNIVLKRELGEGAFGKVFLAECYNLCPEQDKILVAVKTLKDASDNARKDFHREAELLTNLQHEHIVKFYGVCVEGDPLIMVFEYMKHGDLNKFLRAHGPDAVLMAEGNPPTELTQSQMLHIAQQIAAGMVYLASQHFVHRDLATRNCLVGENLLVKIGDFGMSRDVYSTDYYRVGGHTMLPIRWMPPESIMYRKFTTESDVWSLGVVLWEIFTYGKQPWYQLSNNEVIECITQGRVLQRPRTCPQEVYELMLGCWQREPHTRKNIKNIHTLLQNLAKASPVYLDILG

[2] = molecular target: BDNF/NT-3 growth factors receptor (Rattus norvegicus) (UniProt Q63604); assay: Antagonist activity at TrkB in E18 Sprague-Dawley rat hippocampal neurons assessed as inhibition of BDNF-induced TrkB phosphorylation at Tyr490 at 100 uM preincubated for 1 hr followed by BDNF induction for 10 mins by Western blotting analysis; format: functional, tissue-based; conditions: Hippocampus

SMILES	Activity [1]	inhibition [2]
CC(C)[C@@H]1NC(=O)[C@H]2CCCC[C@@H]2NC(=O)CCNC(=O)[C@H](CCCCN)NC(=O)[C@H](CO)NC1=O	inactive	inactive
CC(C)[C@@H]1NC(=O)[C@]2(C)CCN2C(=O)CCNC(=O)[C@H](CCCCN)NC(=O)[C@H](CO)NC1=O	inactive	inactive
CC(C)[C@@H]1NC(=O)[C@H]2CCCC[C@@H]2NC(=O)CNC(=O)[C@H](CCCCN)NC(=O)[C@H](CO)NC1=O (cyclo(G[ACHC(1S,2S)]VSK))	inactive	inactive
CC(C)[C@@H]1NC(=O)[C@H]2CCCC[C@@H]2NC(=O)CCNC(=O)[C@H](CCCCN)NC(=O)[C@H](CO)NC(=O)[C@H](C(C)C)NC(=O)[C@H]2CCCC[C@@H]2NC(=O)CCNC(=O)[C@H](CCCCN)NC(=O)[C@H](CO)NC1=O (cyclo(K[βAla][ACHC(1S,2S)]VSK[βAla][ACHC(1S,2S)]VS))	inactive	
CC(C)[C@@H]1NC(=O)[C@@H]2CCN2C(=O)CNC(=O)[C@H](CCCCN)NC(=O)[C@H](CO)NC1=O (cyclo([Aze]VSKG))	inactive	inactive
CC(C)[C@@H]1NC(=O)[C@@H]2CCN2C(=O)CCNC(=O)[C@H](CCCCN)NC(=O)[C@H](CO)NC1=O (cyclo([Aze]VSK[βAla]))	inactive	inactive
CC(C)[C@@H]1NC(=O)C2(C)CCN2C(=O)CNC(=O)[C@H](CCCCN)NC(=O)[C@H](CO)NC1=O (mixture of isomers)	inactive	inactive

Other lines, results leading:

Activity [1]	inhibition [2]	SMILES
inactive	inactive	CC(C)[C@@H]1NC(=O)[C@@]2(C)CCN2C(=O)CCNC(=O)[C@H](CCCCN)NC(=O)[C@H](CO)NC1=O
inactive	Active	N=C(N)NCCC[C@@H]1NC(=O)[C@H](CCCCN)NC(=O)[C@H](CCCCN)NC(=O)[C@H](CO)NC(=O)[C@H](CC(=O)O)NC(=O)[C@H]2CCCC[C@@H]2NC1=O (cyclo(DSKKR[ACHC(1S,2S)]))
inactive	Active	N=C(N)NCCC[C@@H]1NC(=O)[C@H]2CCCC[C@@H]2NC(=O)[C@H](CC(=O)O)NC(=O)[C@H](CO)NC(=O)[C@H](CCCCN)NC(=O)[C@H](CCCCN)NC(=O)[C@H](CCCNC(=N)N)NC(=O)[C@H]2CCCC[C@@H]2NC(=O)[C@H](CC(=O)O)NC(=O)[C@H](CO)NC(=O)[C@H](CCCCN)NC(=O)[C@H](CCCCN)NC1=O (cyclo(D[ACHC(1S,2S)]RKKSD[ACHC(1S,2S)]RKKS))
inactive		CC(C)[C@@H]1NC(=O)[C@H]2CCCC[C@@H]2NC(=O)CNC(=O)[C@H](CCCCN)NC(=O)[C@H](CO)NC(=O)[C@H](C(C)C)NC(=O)[C@H]2CCCC[C@@H]2NC(=O)CNC(=O)[C@H](CCCCN)NC(=O)[C@H](CO)NC1=O (cyclo(G[ACHC(1S,2S)]VSKG[ACHC(1S,2S)]VSK))
inactive	Active	CC(C)[C@@H]1NC(=O)[C@]2(C)CCN2C(=O)CNC(=O)[C@H](CCCCN)NC(=O)[C@H](CO)NC(=O)[C@H](C(C)C)NC(=O)[C@@]2(C)CCN2C(=O)CNC(=O)[C@H](CCCCN)NC(=O)[C@H](CO)NC1=O (cyclo(G[X1]VSKG[X2]VSK))
inactive		CC(C)[C@@H]1NC(=O)[C@@H]2CCN2C(=O)CNC(=O)[C@H](CCCCN)NC(=O)[C@H](CO)NC(=O)[C@H](C(C)C)NC(=O)[C@@H]2CCN2C(=O)CNC(=O)[C@H](CCCCN)NC(=O)[C@H](CO)NC1=O (cyclo([Aze]VSKG[Aze]VSKG))
